Assay results: US20240041875A1 (priority 2022, published 2024)

Assays:
SARS-CoV-2 = assay type: cell-based
VSV-SARS-CoV-2 [1] = assay type: cell-based
A549-ACE2 cells = assay: Cytotoxicity to A549-ACE2 cells, CellTiter-Glo Assay; assay type: cell-based, human; conditions: 0.1625 nM to 2.5 nM, 24 h
Protocol: FIG. 6. Ponatinib cytotoxicity to A549-ACE2 cells at the concentration range of 0.1625 nM to 2.5 nM). A549-ACE2 cells were treated with ponatinib for 24 h and the cell viability was detected by CellTiter-Glo Assay.

VSV-SARS-CoV-2 [2] = assay type: cell-based; remark: listed apart in the source
SARS-CoV-2 WT strain = system: SARS-CoV-2 WT strain; design: species or system K18-hACE2 mice; conditions: mouse, in vivo

Row | SMILES | reduction of viral infection by live SARS-CoV-2 (plaque assay) (SARS-CoV-2) | inhibition of VSV-SARS-CoV-2 infectivity (VSV-SARS-CoV-2 [1]) | inhibition of VSV-SARS-CoV-2 under four treatment conditions (concomitant, virus pre-incubated, cells pretreated, treatment after infection) (VSV-SARS-CoV-2 [1]) | inhibition of viral infection / plaque formation, side-by-side comparison (VSV-SARS-CoV-2 [1]) | A549-ACE2 cell viability (A549-ACE2 cells) | screening outcome, inhibition of infection by VSV-SARS-CoV-2 (VSV-SARS-CoV-2 [2]) | body weight of infected mice (SARS-CoV-2 WT strain) | expression of SARS-CoV-2 nucleocapsid protein (NP) in lung tissues (IHC) (SARS-CoV-2 WT strain) | survival of infected mice (SARS-CoV-2 WT strain) | survival of infected mice at different doses (SARS-CoV-2 WT strain) | viral RNA copies in the lung (quantitative real-time PCR) (SARS-CoV-2 WT strain) | viral titer in the lung (plaque assay) (SARS-CoV-2 WT strain)
1 | Cc1ccc(C(=O)Nc2ccc(CN3CCN(C)CC3)c(C(F)(F)F)c2)cc1C#Cc1cnc2cccnn12 [ponatinib] | significantly reduced viral infection | significantly inhibited VSV-SARS-CoV-2 in a dose-dependent manner | could inhibit VSV-SARS-CoV-2 under all these conditions | inhibited plaque formation | no effect on A549-ACE2 cell viability | several candidates including ponatinib | two of the five mice treated with ponatinib started to regain body weight on day 7 | markedly lower | lived significantly longer than the control group | Dose-dependent effect | much lower than in the PBS group | significantly decreased the viral load in the lung
2 | Cc1ccc(C(=O)Nc2ccc(CN3CCN(C)CC3)c(C(F)(F)F)c2)cc1C#Cc1cnc2[nH]ncc2c1 [olverembatinib] | – | – | – | not olverembatinib treatment inhibited plaque formation | – | – | – | – | – | – | – | –
